What all share (assay): growth of human tumour cells (NCI), 48 h
Experiment [1] concerns COLO 205 colon.
The subject of experiment [2] is OVCAR-5 ovarian.
Experiment [3] concerns OVCAR-4 ovarian.
The test system of experiment [4] is SF-295 CNS.
Experiment [5] relates to T-47D breast.
Experiment [6] has as its system KM12 colon.
The test system of experiment [7] is SF-539 CNS.
Experiment [8] deals with SK-MEL-28 melanoma.
Experiment [9] has as its system MCF7 breast.
For experiment [10], the system named is CCRF-CEM leukemia.

Several values for one entry are separate records, joined by “and”; a condition that tells them apart may be missing. Equal entries are not always repeated.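 Five concentrations, 48 hours, 96-well plates. The concentration for 50% growth inhibition is given as GI50. TGI marks complete inhibition of growth.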

The text below walks through data of PubChem BioAssay (NCI).

Regarding `CC1=C([Se]CC(OC(=O)[C@@H](CSSC(C)(C)C)NC(=O)C(C)(C)C)C(=O)NCCCCCC(=O)OCc2ccccc2)C(=O)c2ccccc2C1=O` (some centres undefined), the GI50 is 1.8 µM in experiment [1]; 2.59 µM in experiment [2]; 1.58 µM in [3]; 0.317 µM in experiment [4]; 2.19 µM in [5]; 1.8 µM in experiment [6]. In addition, the GI50 was 1.9 µM in experiment [7], 1.92 µM in experiment [8] and 3.04 µM in experiment [9]. In addition, the TGI in [1] was found to be 3.47 µM; in experiment [2] it was 5.44 µM; in experiment [3], 2.97 µM; in experiment [4], 1.95 µM; in [5], 6.39 µM; in [6], 3.5 µM. Besides, the TGI was 3.36 µM in experiment [7], 3.53 µM in experiment [8] and 9.74 µM in experiment [9].

Take `N#Cc1c(N)nc(N2CCOCC2)c(C#N)c1-c1cccc(O)c1`: the GI50 in experiment [1] was 69.3 µM; in experiment [2], more than 100 µM; in experiment [10], more than 100 µM; in experiment [3], 26.5 µM; in [4] it was more than 100 µM; in experiment [5] it was 42.7 µM. The GI50 in experiment [7] was more than 100 µM; in experiment [8], more than 100 µM; in experiment [9] it was 47 µM. Besides, the TGI in experiment [1], in experiment [2], in experiment [10], in experiment [3], in [4] and in experiment [5] was more than 100 µM each time. The TGI in experiment [7], in experiment [8] and in [9] was more than 100 µM each time.

As for `Cc1cc2c(cc1C)[n+](=O)c(C(=O)c1cccs1)c(C(F)(F)F)n2[O-]`, the GI50 was 5.36 µM and 4.94 µM in [1]; 16.7 µM and 4.47 µM in experiment [2]; 6.44 µM and 3.56 µM in experiment [3]; 0.603 µM and 2.89 µM in [4]; 7.74 µM and 4.47 µM in experiment [5]; 5.38 µM and 10.3 µM in experiment [6]. In addition, the GI50 was 1.39 µM in experiment [7]; 8.83 µM and 12.3 µM in [8]; 2.31 µM in experiment [9]. Moreover, the TGI was 41.1 µM and 22.6 µM in [1]; 50 µM and 17.4 µM in [2]; 50 µM and 10.7 µM in [3]; 3.34 µM and 12.9 µM in [4]; 50 µM and 29.8 µM in [5]; 12.6 µM and 51.9 µM in experiment [6]. Also, the TGI in experiment [7] is 7.69 µM; in experiment [8], 28.9 µM and 46.2 µM; in experiment [9] it was 12.6 µM.

For the compound `c1cncc(-c2cc(-c3cc(-c4cccnc4)n[nH]3)[nH]n2)c1`, the TGI in experiment [1], in experiment [2], in [3], in experiment [4], in experiment [5] and in [6] was more than 100 µM each time. Besides, the TGI in experiment [7], in experiment [8] and in experiment [9] was more than 100 µM each time.

For the compound `O=C(c1cccs1)c1c(C(F)(F)F)n([O-])c2cc(C(F)(F)F)ccc2[n+]1=O`, the GI50 is 0.174 µM in [1]; 0.432 µM in experiment [2]; 0.12 µM in experiment [10]; 0.322 µM in experiment [4]; 0.154 µM in experiment [5]; 0.183 µM in experiment [6]. Further, the GI50 in [7] was 0.195 µM; in [8], 0.694 µM; in experiment [9], 0.187 µM. In addition, the TGI in experiment [1] turned out to be 0.362 µM; in experiment [2], 1.37 µM; in [10], 0.361 µM; in [4] it was 0.889 µM; in [5] it was 0.4 µM; in experiment [6], 0.38 µM. Further, the results for the TGI in experiment [7], in [8] and in [9] were 0.409 µM, 2.09 µM and 0.41 µM, respectively.

Turning to `CCOC(=O)c1ccc(C(O)CC(=O)OC(C)(C)C)[nH]1` (centres undefined), the GI50 was 41.3 µM in experiment [1]; 32.3 µM in [2]; 29.6 µM in experiment [10]; 38.1 µM in experiment [3]; 29.7 µM in [4]; 38.4 µM in [5]. Besides, the GI50 in experiment [6] was 24 µM; in experiment [8] it was 35.7 µM; in [9] it was 10.4 µM. Besides, the TGI in experiment [1] is more than 100 µM; in experiment [2], more than 100 µM; in [10], 88 µM; in experiment [3], more than 100 µM; in [4], 63.5 µM; in experiment [5] it was more than 100 µM. Further, the TGI is 61.4 µM in experiment [6], more than 100 µM in experiment [8] and 30 µM in experiment [9].

On to `CCC[CH2][Sn]([CH2]CCC)([O]C(=O)c1cccc(F)c1F)[O][Sn]([CH2]CCC)([CH2]CCC)[O]C(=O)c1cccc(F)c1F`, for which the GI50 in experiment [1] is 0.288 µM; in [2], 1.47 µM; in experiment [3], 0.459 µM; in [4] it was 0.919 µM; in experiment [5], 0.0189 µM; in [6], 0.857 µM. Moreover, the GI50 in experiment [7] is 0.208 µM; in experiment [8], 0.154 µM; in [9], 0.0463 µM. Moreover, the TGI in [1] was 0.969 µM; in [2], 2.9 µM; in [3] it was 1.28 µM; in [4], 2.19 µM; in experiment [5] it was 0.186 µM; in experiment [6], 2.22 µM. The results for the TGI in experiment [7], in experiment [8] and in [9] were 0.722 µM, 0.369 µM and 0.2 µM, respectively.

For `O=c1[nH]cnc2c1nnn2[C@@H]1O[C@H](CO)[C@@H](O)[C@H]1O`, the GI50 in [1] was 3.16 µM; in experiment [2] it was 19.3 µM; in experiment [10], 1.34 µM; in experiment [3] it was 1.89 µM; in [5] it was 4.53 µM; in experiment [6], 7.85 µM. For the same compound, the GI50 in [7] was 7.66 µM; in [8], 31.5 µM; in experiment [9], 3.29 µM. Moreover, the TGI is 20.6 µM in experiment [1]; more than 100 µM in experiment [2]; more than 100 µM in experiment [10]; more than 100 µM in experiment [3]; more than 100 µM in experiment [5]; more than 100 µM in experiment [6]. Also, the TGI in experiment [7], in experiment [8] and in [9] was more than 100 µM throughout.

Turning to `CCOC(=O)CCc1c(C)c2ccc(O)cc2oc1=O`, the TGI in experiment [1], in experiment [2], in experiment [10], in [3], in [4] and in experiment [5] was more than 100 µM throughout. The TGI in experiment [7], in experiment [8] and in experiment [9] was more than 100 µM throughout.
